# Data as given in patent publication US5264427A, “20-substituted pregnene derivatives and their use as androgen synthesis inhibitors” (priority 1992, dated 1993).
# Entries after “also recorded” stand apart in the source; their conditions may differ. Like-named read-outs stand apart in the source and are kept apart here.
# Assays:
# [1] = target: T1, 17(alpha)-hydroxylase/17,20-lyase enzyme (Rattus norvegicus, UniProt P11715); experiment: 17(alpha)-hydroxylase/17,20-lyase inhibition, rat testicular microsomes (Example 1); assay type: biochemical; details: result in words
# T1 sequence (P11715 1-507): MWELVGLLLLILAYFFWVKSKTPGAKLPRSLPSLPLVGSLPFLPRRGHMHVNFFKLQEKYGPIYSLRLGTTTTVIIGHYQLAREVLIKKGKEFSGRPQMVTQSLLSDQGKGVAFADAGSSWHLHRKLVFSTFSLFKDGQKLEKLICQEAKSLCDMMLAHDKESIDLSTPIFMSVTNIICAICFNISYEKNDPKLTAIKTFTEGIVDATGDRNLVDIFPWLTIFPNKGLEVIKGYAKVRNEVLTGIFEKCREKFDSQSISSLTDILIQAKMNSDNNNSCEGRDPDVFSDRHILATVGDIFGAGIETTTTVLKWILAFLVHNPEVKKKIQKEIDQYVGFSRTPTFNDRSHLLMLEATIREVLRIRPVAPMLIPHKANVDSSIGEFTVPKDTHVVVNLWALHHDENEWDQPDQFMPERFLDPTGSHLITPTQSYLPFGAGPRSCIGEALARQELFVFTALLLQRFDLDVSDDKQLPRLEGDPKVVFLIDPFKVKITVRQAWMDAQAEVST
# Method: (§1) Testes were obtained from 220°-250g adult male Sprague-Dawley rats (Charles River), immediately frozen in liquid nitrogen and stored at -70° C. After thawing in the ice bath, the testes were minced and homogenized in 0.25M sucrose (1:4 w/v), then centrifuged at 12,000×gfor 30 min and the resulting supernatant centrifuged at 105,000×g for one hour. The supernatant was then decanted and the pellet containing the microsomes was resuspended in 0.1M sodium phosphate buffer (pH 7.4) (2.5g wet weight of tissue/ 2 ml buffer). All the above procedures were performed at 4C. The microsomal fraction was stored at -70C. Just before use, microsomes were diluted to the concentration of 1.25 g wet weight of tissue/10 ml phosphate buffer.
# The incubation was stopped by cooling the mixture in an ice bath and adding 2 ml ether to each incubation tube. The ^3 H-labelled steriods (progesterone P4; 17(alpha)-hydroxyprogesterone 170HP4, androstenedione A and testosterone T, 8,000dpm each) were added as recovery markers and the steroids were extracted with ether (2 ml×3). The ether was evaporated with air. Steroid carriers (P4, 17-0HP4, A and T, 4 micrograms each) were added to the extracts which were then applied to thin layer chromatography (TLC) plates for separation of the steroids. […] After evaporating the ether, the steroids were dissolved in counting cocktail and the radioactivity measured. The recovery of steroids calculated from the ^3 H-labelled markers was between 80 to 90 percent and the enzyme activity was determined from the percentage conversion of [4-C^14 ]-progesterone to 170HP4, A and T.
# C^17,20 -Lyase: The procedure for measurement of the C17,20 -lyase was similar to the procedure for the 17(alpha)-hydroxylase, except that the substrate was 17(alpha)-hydroxy-[[1,2,6,7-^3 H]-progesterone (various concentration, 10^5 dpm) and recovery markers were [4-^14 C]-labelled steroids. […] The enzyme activity was determined from the percent conversion of 17(alpha)-hydroxy-[1,2,6,7-3H]-progesterone to A and T.
# [2] = target: T2, 17(alpha)-hydroxylase/C17,20-lyase (Rattus norvegicus, UniProt P11715); experiment: Hydroxylase/lyase assay, rat testis homogenates, [21-14C]-progesterone side-chain cleavage (Examples 2 and 3, Table 2); assay type: biochemical; details: progesterone 40 microM, 45 min
# T2 construct: with rat testis homogenates (2.7 mg protein in 0.5 ml phosphate buffer); from tissue; host or cells: rat testis homogenate
# T2 sequence (P11715 1-507): T1 sequence (P11715 1-507)
# Method: Compounds I-16 and I-25 were synthesized according to known procedures. The compounds were then assayed for their ability to inhibit the 17(alpha)-hydroxylase/C17,20 -lyase enzyme and the 5(alpha)-reductaseenzyme. The hydroxylase/lyase assay was carried out by incubation of [21-^14 C]-progesterone (40 microM, 70,000 dpm) and candidate inhibitors with rat testis homogenates (2.7 mg protein in 0.5 ml phosphate buffer), NADPH generating system under oxygen for 45 minutes. The enzyme activity was measured according to the conversion of progesterone to the product of C17,20 -side chain cleavage ([2-^14 C]-acetic acid). […] The results were based on the TLC separation.
# 17(alpha)-hydroxylase = target: T3, 17(alpha)-hydroxylase (Rattus norvegicus, UniProt P11715); experiment: 17(alpha)-hydroxylase assay, rat testicular microsomes (Example 1, Table 1); assay type: biochemical
# T3 construct: approximately 1 mg rat testicular microsomal protein in 450 microliters phosphate buffer; from tissue; host or cells: testes of adult male Sprague-Dawley rats (Charles River), microsomal fraction
# T3 sequence (P11715 1-507): T1 sequence (P11715 1-507)
# Method: as §1
# The incubation was stopped by cooling the mixture in an ice bath and adding 2 ml ether to each incubation tube. The ^3 H-labelled steriods (progesterone P4; 17(alpha)-hydroxyprogesterone 170HP4, androstenedione A and testosterone T, 8,000dpm each) were added as recovery markers and the steroids were extracted with ether (2 ml×3). The ether was evaporated with air. Steroid carriers (P4, 17-0HP4, A and T, 4 micrograms each) were added to the extracts which were then applied to thin layer chromatography (TLC) plates for separation of the steroids. After development for 1.5 hours in hexanes/ethyl acetate, 65:35(v/v), the steroids were located by UV (254 nm) absorption, scraped off and eluted into scintillation vials with ether. After evaporating the ether, the steroids were dissolved in counting cocktail and the radioactivity measured. The recovery of steroids calculated from the ^3 H-labelled markers was between 80 to 90 percent and the enzyme activity was determined from the percentage conversion of [4-C^14 ]-progesterone to 170HP4, A and T.
# The purity of each steroid on the TLC was confirmed by two methods. First, the percent conversion of each compound in a half amount of the extract from one incubation were compared after separation of TLC and HPLC. The HPLC procedure has been described in detail previously. The solvent system used was methanol/acetonitrile/water (15.6:36.4:48). The flow rate was 1 ml/min and pressure 2200 psi, the retention time of these steroids was P4 38.3 min, 170HP4 15.93 min, A 14.33 min, and T 11.43 min, respectively. Secondly, after the first separation by TLC in solvent system A (hexane/ethyl acetate 65:35), the eluted steroids were chromatographed in solvent system B (chloroform/acetonitrile, 85:15).
# ^1 Incubation of [4^14 Cprogesterone (various concentration,
# microsome (approximately 1 mg protein) and NADPH generating system was
# carried out at 37 C. under O2 for 30 min. The apparent Km for this
# C17,20-lyase = target: T4, C17,20-lyase (Rattus norvegicus, UniProt P11715); experiment: C17,20-lyase assay, rat testicular microsomes (Example 1, Table 1); assay type: biochemical
# T4 construct: approximately 1 mg rat testicular microsomal protein in 450 microliters phosphate buffer; from tissue; host or cells: testes of adult male Sprague-Dawley rats (Charles River), microsomal fraction
# T4 sequence (P11715 1-507): T1 sequence (P11715 1-507)
# Method: as §1
# C^17,20 -Lyase: The procedure for measurement of the C17,20 -lyase was similar to the procedure for the 17(alpha)-hydroxylase, except that the substrate was 17(alpha)-hydroxy-[[1,2,6,7-^3 H]-progesterone (various concentration, 10^5 dpm) and recovery markers were [4-^14 C]-labelled steroids. Carrier steroids (170HP4, A and T) were also added to locate the product areas on the TLC plates. The enzyme activity was determined from the percent conversion of 17(alpha)-hydroxy-[1,2,6,7-3H]-progesterone to A and T.
# The purity of each steroid on the TLC was confirmed by two methods. First, the percent conversion of each compound in a half amount of the extract from one incubation were compared after separation of TLC and HPLC. The HPLC procedure has been described in detail previously. The solvent system used was methanol/acetonitrile/water (15.6:36.4:48). […] Secondly, after the first separation by TLC in solvent system A (hexane/ethyl acetate 65:35), the eluted steroids were chromatographed in solvent system B (chloroform/acetonitrile, 85:15).
# DHT in the prostate = experiment: In vivo study: DHT concentration in the prostate of male rats (RIA); design: species or system rat (male Sprague-Dawley); details: 50 mg/kg/day sc, 21 days
# Method: (§2) A group of 8 adult male Sprague-Dawley rats were injected sc with vehicle (0.3% hydroxypropyl cellulose, HPC) and a group of 8 rats were injected sc with a suspension of the compound I-23 in HPC (50 mg/kg body weight/day) every 24 hours for 21 days. The rats were autopsied at the last day, the ventral prostates and blood samples were collected. The prostate tissues were stored at -70° C. and the sera were separated first by centrifugation at 2,200 rpm, then stored at -15° C. until assayed. The DHT levels in the rat prostates were measured by radioimmunoassay (RIA) using testosterone/dihydrotestosterone RIA kit from Amersham Co. (Illinois). The testosterone levels in the rat sera were measured by using the [^125 I]-testosterone diagnostic kits (ICN Biochemics Inc.). The results obtained were analyzed by using Student t test.
# (§3) The 4-pregnen-3-one-20(beta)-aldoxime was also studied for its effect on male rats in vivo. Male rats were daily treated with the compound at the dose of 50 mg/kg body weight injected subcutaneously for 21 days. […] The serum testosterone of these rats was measured as well.
# [3] = target: T5, rat testicular 17(alpha)-hydroxylase/C17,20-lyase (Rattus norvegicus, UniProt P11715); experiment: Hydroxylase/lyase assay, rat testicular homogenates, [21-14C]progesterone (Example 4, Table 3); assay type: biochemical; details: 0.75 h
# T5 construct: rat testicular homogenates (prepared from 220-250g adult male Sprague-Dawley rats); from tissue; host or cells: testes of adult male Sprague-Dawley rats, homogenate
# T5 sequence (P11715 1-507): T1 sequence (P11715 1-507)
# Method: The assay was performed by incubation of rat testicular homogenates (prepared from 220-250g adult male Sprague-Dawley rats, approx. 3.5 mg protein) with [21-^14 C]progesterone (40uM, 5×10^4 dpm), NADPH generating system and candidate inhibitors in phosphate buffer (pH 7.4, total volume 500ul) under oxygen for 45 min at 37° C. Two ml of choloroform was added to each tube to stop the reaction. The steriods were extracted with chloroform and the aqueous phase was treated with charcoal. The side chain cleavage product [2-^14 C]acetic acid in the aqueous phase was mixed with 3a70B counting cocktail and counted on the Rack Beta II liquid scintillation counter. The enzyme activity was determined from the conversion of progesterone P4 to [2-^14 C]acetic acid.
# serum testosterone = experiment: In vivo study: serum testosterone of male rats (RIA); design: species or system rat (male Sprague-Dawley); details: 50 mg/kg/day sc, 21 days
# Method: as §2, §3
# 5(alpha)-reductase = target: T6, 5(alpha)-reductase (Homo sapiens, UniProt P31213); experiment: 5(alpha)-reductase assay, human prostatic (BPH) tissue homogenates (Example 1, Table 1); details: result in words
# T6 sequence (P31213 1-254): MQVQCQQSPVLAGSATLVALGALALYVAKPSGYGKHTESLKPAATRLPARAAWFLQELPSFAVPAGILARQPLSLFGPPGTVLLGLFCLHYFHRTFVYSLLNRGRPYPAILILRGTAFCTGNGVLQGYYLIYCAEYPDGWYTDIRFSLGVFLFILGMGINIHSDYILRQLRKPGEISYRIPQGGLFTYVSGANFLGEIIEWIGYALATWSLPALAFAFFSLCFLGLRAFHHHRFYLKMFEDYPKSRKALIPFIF
# Method: Tissue was homogenized in 0.1M phosphate buffer (60 mg wet weight of tissue/ ml buffer, pH 7.4) at 4C and the homogenates were diluted with an equal volume of buffer before use.
# 5(alpha)-reductase: [7-^3 H]testosterone (10^6 dpm) was incubated for 30 minutes at 37° C. with the NADPH generating system, homogenate of human prostatic tissue (30mg wet weight of tissue/1 ml buffer) and the candidate inhibitors at concentrations ranging from 0.1-10uM. […] The steroids were extracted with ether and the extracts chromatographed on TLC (chloroform: ether 95:5). […] The steroids were scraped from the plate and radioactivity measured.
# [4] = in vivo; cited from earlier work
smiles,measurement,setting,value
"CCN(CC)C(=O)[C@H]1CC[C@H]2[C@@H]3CC[C@H]4N(C)C(=O)CC[C@]4(C)[C@H]3CC[C@]12C [Compound 4-MA, N,N-diethyl-4-methyl-3-oxo-4-aza-5(alpha)-androstane-17(beta)-carboxyamide, reference compound]","inhibition of the 17(alpha)-hydroxylase/17,20-lyase enzyme",[1],did not show any inhibition
same,"% Inhibition of 17(alpha)hydroxylase/lyase, [I] = 10 × [S]",[2],No inhibition
same,"% Inhibition of 17(alpha)hydroxylase/lyase, [I] = [S]",[2],No inhibition
same,17(alpha)-hydroxylase Ki,"17(alpha)-hydroxylase; rat testicular microsomes, progesterone substrate, 30 min, 37 C, N.I. = no inhibition",N.I
same,"C17,20-lyase Ki","C17,20-lyase; rat testicular microsomes, 17(alpha)-hydroxyprogesterone substrate, 30 min, 37 C, N.I. = no inhibition",N.I.
"C[C@H](C=NO)[C@H]1CC[C@H]2[C@@H]3CCC4=CC(=O)CC[C@]4(C)[C@H]3CC[C@]12C [Compound I-23, 4-pregnen-3-oxo-20(beta)-carboxaldehyde oxime]","prostatic DHT levels, effect in words",DHT in the prostate,effective in reducing
same,selectivity lyase versus hydroxylase,"[1]; according to Ki values, listed as 4-pregnen-3-one-20(beta)-aldoxime",more specific inhibitor for the lyase than for the hydroxylase; also recorded: preferentially inhibited the lyase rather than the hydroxylase step
same,Ki,17(alpha)-hydroxylase,31.2 µM
same,type of inhibition of the hydroxylase,17(alpha)-hydroxylase; Lineweaver-Burk,competitive inhibition
same,inhibition at 400 µM,"[3]; pH 7.4, read-out: Inhibition of 17(alpha)-hydroxylase/C17,20-lyase (%), [I] = 10 × [S]",84%
same,inhibition at 40 µM,"[3]; pH 7.4, read-out: Inhibition of 17(alpha)-hydroxylase/C17,20-lyase (%), [I] = [S]",39.3%
same,Ki,"C17,20-lyase",1.07 µM
same,"potency versus Ketoconazole, C17,20-lyase","C17,20-lyase; FIG. 2, result in words",more potent than Ketoconazole
same,type of inhibition of the lyase,"C17,20-lyase; Lineweaver-Burk",competitive inhibition
same,"potency relative to ketoconazole for rat testicular C17,20-lyase","C17,20-lyase; according to the Ki values",approximately 3.5 fold
same,serum testosterone,"serum testosterone; n=8, control 4.03±0.64, P<0.005",1.60±0.37 ng/ml serum
same,"plasma testosterone concentrations, effect in words",serum testosterone; rats,effective in reducing plasma testosterone concentrations
"CC(=O)N1CCN(c2ccc(OCC3COC(Cn4ccnc4)(c4ccc(Cl)cc4Cl)O3)cc2)CC1 (centres unmarked) [Ketoconazole, reference compound]","% Inhibition of 17(alpha)hydroxylase/lyase, [I] = 10 × [S]",[2],65.80%
same,"% Inhibition of 17(alpha)hydroxylase/lyase, [I] = [S]",[2],31.53%
same,Ki,"17(alpha)-hydroxylase; rat testicular microsomes, progesterone substrate, 30 min, 37 C, N.I. = no inhibition, read-out: 17(alpha)-hydroxylase Ki",39.5 µM
same,inhibition of 5(alpha)-reductase in the human prostate,5(alpha)-reductase,did not inhibit
same,"cortisol production and side-effects, in words",[4],reduces cortisol production and has a number of side-effects
same,Ki,"C17,20-lyase; rat testicular microsomes, 17(alpha)-hydroxyprogesterone substrate, 30 min, 37 C, N.I. = no inhibition, read-out: C17,20-lyase Ki",3.6 µM
